Experimental data published in patent US5679695A, “Aryl and heteroaryl compounds having anti-retrovirus activity” (The University of Connecticut, priority 1995, dated 1997).
pEC50, pIC50: −log10 of the molar value. Values joined by “and” are separate entries in the source; they are usually repeats but may differ in a detail not shown here. Identical values can stand only once. Like-named read-outs stand apart in the source and are kept apart here.

Key:
HIV-1 = experiment: XTT assay of protection from HIV-1 cytopathic effect, infected, CEM-IW; type: cell-based, Human Immunodeficiency Virus
Procedure: (§1) Another assay for testing the efficacy of the compounds is the procedure* used in the National Cancer Institute's test for agents active against Human Immunodeficiency Virus (HIV). It is designed to detect agents acting at any stage of the virus reproductive cycle. The assay basically involves the killing of T4 lymphocytes by HIV. Small amounts of HIV are added to cells, and a complete cycle of virus reproduction is necessary to obtain the required cell killing. Agents that interact with virions, cells, or virus gene-products to interfere with viral activities will protect cells from cytolysis. The system is automated in several features to accommodate large numbers of candidate agents and is generally designed to detect anti-HIV activity. However, compounds that degenerate, or are rapidly metabolized in the culture conditions may not show activity in this screen. All tests are compared with at least one positive (e.g., AZT-treated) control done at the same time under identical conditions.
(§2) * Weislow. O. W., Kiser, R., Fine, D., Bader, J., Shoemaker, R. H., Boyd, M. R.: New soluble-formazan assay for HIV-1 cytopathic effects: application to high-flux screening of synthetic and natural products for AIDS-antiviral activity. J. Natl. Cancer Inst. 81:577-586, 1989.
(§3) 1. The Candidate agent is dissolved in dimethyl sulfoxide (unless otherwise instructed) then diluted 1:100 in cell culture medium before preparing serial half-log10 dilutions. T4 lymphocytes (CEM cell line) are added and after a brief interval HIV-1 added, resulting in a 1:200 final dilution of the compound. Uninfected cells with the compound serve as a toxicity control, and infected and uninfected cells without compound serve as basic controls.
(§4) 2. Cultures are incubated at 37° in a 5% carbon dioxide atmosphere for 6 days.
(§5) 3. The tetrazolium salt, XTT, is added to all wells, and cultures are incubated to allow formazan color development by viable cells.
(§6) 4. Individual wells are analyzed spectrophotometrically to quantitate formazan production, and in addition are viewed microscopically for detection of viable cells and confirmation of protective activity.
(§7) 5. Drug-treated virus-infected cells are compared with drug-treated noninfected cells and with other appropriate controls (untreated infected and untreated noninfected: cells, drug-containing wells without cells, etc.) on the same plate.
(§8) 6. Data are reviewed in comparison with other tests done at the same time and a determination about activity is made.

HIV [1] = experiment: Anti-HIV activity in MT-2; type: cell-based
From the text: (§9) Obviously, there is a structure activity relationship with respect to the efficacy of the compounds of the present invention. Factors that affect the relationship may include steric effects, electronic effects, (electron withdrawing or electron donating ability), resonance effects, hydrophobic,hydrophilic, hydrogen bonding parameters, etc. […] Based on the data, it has been determined that there is a direct correlation between the log (EC50)^-1 and the electronic effect of a substituent (a) or more precisely the sum of the sigma (σ) values. (The greater the electron withdrawing ability of a substituent, the higher the value of σ, while a better electron donating group has a lower value of σ.) There appears to be a direct correlation between log (EC50)^-1 and the Σσ; as the Σσ increases, so does the log (EC50)^-1. The addition of substituents to the diphenyl sulfone will affect the factors discussed hereinabove, thus both the log (EC50)^-1 and the Σσ will be affected. Thus for the diphenyl sulfone derivative [drawing 25] the relation is […]

[2] = XTT toxicity control, uninfected, CEM-IW; type: cell-based; details: human, cem-iw cells, read-out: Uninfected response
Procedure: as §1, §2, §3, §4, §5, §6, §7, §8

CEM-IW = experiment: XTT toxicity control, uninfected, CEM-IW; type: cell-based
Procedure: as §1, §2, §3, §4, §5, §6, §7, §8

HIV [3] = experiment: Anti-HIV assays (summary statements, structure-activity trends); type: cell-based
From the text: as §9

[4] = Human immunodeficiency virus 1, CEM-IW, summary table, read-out: CEM-IW EC50
[5] = Human immunodeficiency virus 1, read-out: MT-2 EC50, M
[6] = Human immunodeficiency virus 1, MT-2, summary table, read-out: MT-2 EC50

Molecule `O=[N+]([O-])c1ccccc1Sc1ccccc1[N+](=O)[O-]` [Compound 5] has a pEC50 (HIV-1; [4]) of 5.10 and a pEC50 (HIV [1]; [5]) of 5.24.

With `O=[N+]([O-])c1ccccc1S(=O)(=O)c1ccccc1[N+](=O)[O-]` [Compound 6, 2,2'-dinitrodiphenyl sulfone] the Conclusion (HIV-1; CEM-IW) was “ACTIVE”, the “TI50 (IC/EC)” value (HIV-1; CEM-IW) was > 2.05 × 10^+2 and > 1.75 × 10^+2 and > 1.27 × 10^+2 and > 1.62 × 10^+2 and the Infected response (HIV-1; CEM-IW, 1.45 × 10^-4 Molar, 145 µM) was 94.22% of Control and 83.35% of Control and 80.76% of Control. For the same molecule, the Infected response (HIV-1; CEM-IW, 1.45 × 10^-5 Molar, 14.5 µM) was 100.31% of Control and 95.03% of Control and 82.49% of Control and 79.91% of Control, the Infected response (HIV-1; CEM-IW, 1.45 × 10^-6 Molar, 1.45 µM) was 86.23% of Control and 82.50% of Control and 62.75% of Control and 68.40% of Control and the Infected response (HIV-1; CEM-IW, 4.58 × 10^-5 Molar, 45.8 µM) was 95.59% of Control and 83.75% of Control and 82.81% of Control. For the same molecule, the Infected response (HIV-1; CEM-IW, 4.59 × 10^-6 Molar, 4.59 µM) was 92.81% of Control and 84.87% of Control and 80.73% of Control, the Infected response (HIV-1; CEM-IW, 4.60 × 10^-7 Molar, 0.46 µM) was 29.70% of Control and 24.44% of Control and 37.65% of Control and the pEC50 (HIV-1; CEM-IW, infected, read-out: EC50) was 6.08 and 5.94 and 6.05. For the same molecule, the viability at 145 µM (HIV-1; Human immunodeficiency virus 1, CEM-IW, 1.45 × 10^-4 Molar, read-out: Infected response) was 97.4%, the viability at 45.8 µM (HIV-1; Human immunodeficiency virus 1, CEM-IW, 4.58 × 10^-5 Molar, read-out: Infected response) was 99% and the viability at 4.59 µM (HIV-1; Human immunodeficiency virus 1, CEM-IW, 4.59 × 10^-6 Molar, read-out: Infected response) was 94%. The viability at 0.46 µM (HIV-1; Human immunodeficiency virus 1, CEM-IW, 4.60 × 10^-7 Molar, read-out: Infected response) was 42%, the pEC50 (HIV-1; Human immunodeficiency virus 1, CEM-IW, infected, read-out: EC50) was 6.15 and the pEC50 (HIV-1; Human immunodeficiency virus 1, read-out: CEM-IW EC50, M, CEM-IW, summary table) was 5.26. For the same molecule, the viability at 14.5 µM ([2]; 1.45 × 10^-5 Molar) was 92.5%, the viability at 1.45 µM ([2]; 1.45 × 10^-6 Molar) was 87.1% and the viability at 4.59 µM ([2]; 4.59 × 10^-6 Molar) was 90%. For the same molecule, the Uninfected response (CEM-IW; 1.45 × 10^-4 Molar, 145 µM) was 109.82% of Control and 97.75% of Control and 89.72% of Control and 104.62% of Control, the Uninfected response (CEM-IW; 1.45 × 10^-5 Molar, 14.5 µM) was 97.21% of Control and 84.55% of Control and 104.22% of Control and the Uninfected response (CEM-IW; 1.45 × 10^-6 Molar, 1.45 µM) was 93.92% of Control and 100.12% of Control and 105.53% of Control. For the same molecule, the Uninfected response (CEM-IW; 1.45 × 10^-7 Molar, 0.145 µM) was 80.72% of Control and 98.46% of Control and 109.08% of Control and 105.53% of Control, the Uninfected response (CEM-IW; 4.58 × 10^-5 Molar, 45.8 µM) was 100.68% of Control and 106.72% of Control and 80.53% of Control and 105.99% of Control and the Uninfected response (CEM-IW; 4.59 × 10^-6 Molar, 4.59 µM) was 96.62% of Control and 82.26% of Control and 98.81% of Control. The Uninfected response (CEM-IW; 4.60 × 10^-7 Molar, 0.46 µM) was 74.84% of Control and 97.86% of Control and 88.80% of Control and 107.87% of Control, the Uninfected response (CEM-IW; 4.60 × 10^-8 Molar, 0.046 µM) was 88.77% of Control and 104.88% of Control and 105.92% of Control and 111.46% of Control and the pIC50 (CEM-IW; uninfected (toxicity)) was less than 3.84. The pEC50 (HIV [1]; [5]) was 6.13 and the “anti-HIV activity (in words)” value (HIV [3]) was “increased potency”.

For `O=S(=O)(c1ccccc1)c1ccccn1` [Compound 7, phenyl 2-pyridyl sulfone], the pEC50 (HIV-1; [4]) was 3.69, the pEC50 (HIV [1]; [6]) was 4.12 and the “anti-HIV activity (in words)” value (HIV [3]) was “shows anti-HIV activity”.

`O=[N+]([O-])c1ccccc1S(=O)(=O)c1ccc(Cl)cc1` [Compound 4, 1-(4-chlorophenylsulfonyl)-2-nitrobenzene] showed a pEC50 (HIV-1; [4]) of 4.37 and a pEC50 (HIV [1]; [6]) of 4.42.

`[O-][S+](c1ccccc1)c1ccccc1` [H H H H SO] gave a pEC50 (HIV [1]; [5]) of 3.45.

In the case of `O=S(=O)(c1ccccc1)c1ccccc1` [Compound 3, diphenyl sulfone], the pEC50 (HIV [1]; [5]) was 4.11.
